Reference: ChEMBL document CHEMBL1201862, “PubChem BioAssay data set” (2004)
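Tested at 5 concentrations; 48 h exposure; 96-well plates; endpoints linearly interpolated, else capped at highest concentration. Here, GI50 denotes the concentration required for 50% inhibition of growth.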 Activity calls are given as the source filed them. Cut-off read from the data, not from the text of the source: active = GI50 up to about 1.1 µM and inactive = higher.

Assays:
Assay in all cases: inhibition of tumour cell growth, NCI panel, 48 h
786-0 = tested on: 786-0
A498 = tested on: A498
A549 = tested on: A549
ACHN = tested on: ACHN
BT-549 = tested on: BT-549
CAKI-1 = tested on: CAKI-1
CCRF-CEM = tested on: CCRF-CEM
COLO 205 = tested on: COLO 205
DU-145 = tested on: DU-145
EKVX = tested on: EKVX
HCC 2998 = tested on: HCC 2998
HCT-116 = tested on: HCT-116
HCT-15 = tested on: HCT-15
HL-60 = tested on: HL-60
HOP-62 = tested on: HOP-62
HOP-92 = tested on: HOP-92
HT-29 = tested on: HT-29
Hs-578T = tested on: Hs-578T
IGROV-1 = tested on: IGROV-1
K562 = tested on: K562
KM12 = tested on: KM12
LOX IMVI = tested on: LOX IMVI
M14 = tested on: M14
MCF7 = tested on: MCF7
MDA-MB-231 = tested on: MDA-MB-231
MDA-MB-435 = tested on: MDA-MB-435
MDA-N = tested on: MDA-N
MOLT-4 = tested on: MOLT-4
Malme-3M = tested on: Malme-3M
NCI-H226 = tested on: NCI-H226
NCI-H23 = tested on: NCI-H23
NCI-H460 = tested on: NCI-H460
NCI-H522 = tested on: NCI-H522
NCI/ADR-RES = tested on: NCI/ADR-RES
OVCAR-3 = tested on: OVCAR-3
OVCAR-4 = tested on: OVCAR-4
OVCAR-5 = tested on: OVCAR-5
OVCAR-8 = tested on: OVCAR-8
PC-3 = tested on: PC-3
RPMI-8226 = tested on: RPMI-8226
RXF 393 = tested on: RXF 393
SF-268 = tested on: SF-268
SF-295 = tested on: SF-295
SF-539 = tested on: SF-539
SK-MEL-28 = tested on: SK-MEL-28
SK-MEL-2 = tested on: SK-MEL-2
SK-MEL-5 = tested on: SK-MEL-5
SK-OV-3 = tested on: SK-OV-3
SN12C = tested on: SN12C
SNB-19 = tested on: SNB-19
SNB-75 = tested on: SNB-75
SR = tested on: SR
SW-620 = tested on: SW-620
T47D = tested on: T47D
TK-10 = tested on: TK-10
U-251 = tested on: U-251
UACC-257 = tested on: UACC-257
UACC-62 = tested on: UACC-62
UO-31 = tested on: UO-31

Structure (SMILES): CCOP(=O)(OCC)c1c(C(=O)OC)cc(=O)[nH]c1-c1ccc(C)cc1
- GI50 (786-0): 20.6 µM (inactive)
- GI50 (A498): 22 µM (inactive)
- GI50 (A549): 15.2 µM (inactive)
- GI50 (ACHN): 3.17 µM (inactive)
- GI50 (BT-549): 7.71 µM (inactive)
- GI50 (CAKI-1): 5.46 µM (inactive)
- GI50 (CCRF-CEM): 2.02 µM (inactive)
- GI50 (COLO 205): 6.5 µM (inactive)
- GI50 (DU-145): 12.9 µM (inactive)
- GI50 (EKVX): 3.73 µM (inactive)
- GI50 (HCC 2998): 18.1 µM (inactive)
- GI50 (HCT-116): 13.8 µM (inactive)
- GI50 (HCT-15): 9.73 µM
- GI50 (HL-60): 1.23 µM (inactive)
- GI50 (HOP-62): 18.5 µM (inactive)
- GI50 (HOP-92): 2.75 µM (inactive)
- GI50 (HT-29): 14.4 µM (inactive)
- GI50 (Hs-578T): 17.9 µM (inactive)
- GI50 (IGROV-1): 6.43 µM (inactive)
- GI50 (K562): 10.4 µM (inactive)
- GI50 (KM12): 16 µM (inactive)
- GI50 (LOX IMVI): 17.7 µM (inactive)
- GI50 (M14): 11.6 µM (inactive)
- GI50 (MCF7): 13.4 µM (inactive)
- GI50 (MDA-MB-231): 25.1 µM (inactive)
- GI50 (MDA-MB-435): 18.5 µM (inactive)
- GI50 (MDA-N): 24.8 µM (inactive)
- GI50 (MOLT-4): 4.57 µM (inactive)
- GI50 (Malme-3M): 6.1 µM (inactive)
- GI50 (NCI-H226): 9.31 µM (inactive)
- GI50 (NCI-H23): 16.9 µM (inactive)
- GI50 (NCI-H460): 19.1 µM (inactive)
- GI50 (NCI-H522): 0.968 µM (active)
- GI50 (NCI/ADR-RES): 19.5 µM (inactive)
- GI50 (OVCAR-3): 11.1 µM (inactive)
- GI50 (OVCAR-4): 8.2 µM (inactive)
- GI50 (OVCAR-5): 5.64 µM (inactive)
- GI50 (OVCAR-8): 17.7 µM (inactive)
- GI50 (PC-3): 16.7 µM (inactive)
- GI50 (RPMI-8226): 5.27 µM (inactive)
- GI50 (RXF 393): 12.5 µM (inactive)
- GI50 (SF-268): 19.4 µM (inactive)
- GI50 (SF-295): 19.8 µM (inactive)
- GI50 (SF-539): 7.87 µM (inactive)
- GI50 (SK-MEL-28): 18.5 µM (inactive)
- GI50 (SK-MEL-2): 15.7 µM (inactive)
- GI50 (SK-MEL-5): 13.3 µM (inactive)
- GI50 (SK-OV-3): 22.8 µM (inactive)
- GI50 (SN12C): 22.4 µM (inactive)
- GI50 (SNB-19): 21.6 µM (inactive)
- GI50 (SNB-75): 12.8 µM (inactive)
- GI50 (SR): 3.03 µM (inactive)
- GI50 (SW-620): 5.75 µM (inactive)
- GI50 (T47D): 2.58 µM (inactive)
- GI50 (TK-10): 14.4 µM (inactive)
- GI50 (U-251): 13.1 µM (inactive)
- GI50 (UACC-257): 15.6 µM (inactive)
- GI50 (UACC-62): 7.01 µM (inactive)
- GI50 (UO-31): 4.05 µM (inactive)
